According to patent publication US6242468A, “Carbamate and urea compositions and neurotrophic uses” (priority 1998, dated 2001):

Test system: TH-positive dopaminergic neurons in the striatum
Assay: MPTP Model of Parkinson's Disease; recovery of TH-positive dopaminergic neurons in the striatum
Format: in vivo, male CD1 white mice
Conditions: 4 mg/kg s.c.; MPTP 30 mg/kg i.p. for 5 days; compound along with MPTP and 5 further days; 18 days following MPTP
Method: MPTP lesioning of dopaminergic neurons in mice was used as an animal model of Parkinson's Disease. Four week old male CD1 white mice were dosed i.p. with 30 mg/kg of MPTP for 5 days. Test compounds (4 mg/kg), or vehicle, were administered s.c. along with the MPTP for 5 days, as well as for an additional 5 days following cessation of MPTP treatment. At 18 days following MPTP treatment, the animals were sacrificed and the striata were dissected and perfusion-fixed. Immunostaining was performed on saggital and coronal brain sections using anti-tyrosine hydroxylase […] to quantitate survival and recovery of dopaminergic neurons. In animals treated with MPTP and vehicle, a substantial loss of functional dopaminergic terminals was observed as compared to non-lesioned animals. […] Table III presents quantitation for the recovery of TH-positive dopaminergic neurons in the striatum of animals receiving compounds 1, 3, 4 and 5 in this model.

| SMILES | % Recovery of TH Immunostaining [%] |
| --- | --- |
| CCC(C)CNC(=O)N1CCC[C@H]1C(=O)OCCCc1cccnc1 (stereo partly drawn) [Example 1, 3-(3-pyridyl)-1-propyl (2S)-1-[(2-methylbutyl)carbamoyl]pyrrolidine-2-carboxylate] | 27.47 |
| O=C(OCCCc1cccnc1)[C@@H]1CCCN1C(=S)NC1CCCCC1 [Example 3, 3-(3-pyridyl)-1-propyl (2S)-1-[(cyclohexyl)thiocarbamoyl]-pyrrolidine-2-carboxylate] | 56.13 |
| O=C(OCCCc1cccnc1)[C@@H]1CCCN1C(=O)NC1CCCCC1 [Example 4, 3-(3-pyridyl)-1-propyl (2S)-1-[(cyclohexyl)carbamoyl]-pyrrolidine-2-carboxylate] | 59.79 |
| O=C(OCCCc1cccnc1)[C@@H]1CCCN1C(=S)NC12CC3CC(CC(C3)C1)C2 [Example 5, 3-(3-pyridyl)-1-propyl (2S)-1-[(1-adamantyl)thiocarbamoyl]pyrrolidine-2-carboxylate] | 52.32 |
